Assay results reported in ChEMBL document CHEMBL3301361, “Experimental in vitro DMPK and physicochemical data on a set of publicly disclosed compounds”.
In brackets after ≈: the same amount, converted by molar mass.

Assay: physchem
Conditions: pH 7.4 buffer

Structure (SMILES) | solubility thermodynamic [µM]
COc1cc2ncnc(Nc3ccc(F)c(Cl)c3)c2cc1OCCCn1ccnc1 | 2.5 (≈ 1.07 µg/mL)
CC(C)OC(=O)c1cn(Cc2c(F)cccc2F)c2sc(-c3ccc(NC(=O)C(C)C)cc3)c(CN(C)Cc3ccccc3)c2c1=O | 38 (≈ 25 µg/mL)
CC/C(=C(/CC)c1ccc(O)cc1)c1ccc(O)cc1 [DIETHYLSTILBESTROL] | 25.1 (≈ 6.74 µg/mL)
COCCOc1cc2nccc(Nc3ccc(Cl)cc3F)c2cc1OC | 33.9 (≈ 12.8 µg/mL)
Nc1c2c(O)nc(O)cc2nn1-c1ccccc1 | 178 (≈ 43.1 µg/mL)
COc1ccc(Cl)c(Nc2ncnc3cc(OCC4CCN(C)CC4)c(OC)cc23)c1 [AZM-475271] | 324 (≈ 143 µg/mL)
CC(C)Oc1cc(OCCN2CCOCC2)cc2ncnc(Nc3c(Cl)ccc4c3OCO4)c12 | 4.4 (≈ 2.14 µg/mL)
Cc1cc(Nc2ncnc3[nH]nc(OCCN4CCC(O)CC4)c23)ccc1OCc1cccc(F)c1 | 6.8 (≈ 3.35 µg/mL)
CCn1ccc(NC(=O)Cc2ccc(Oc3ncnc4cc(OC)c(OC)cc34)cc2)n1 | 32.4 (≈ 14 µg/mL)
Cc1ccc(C(=O)N2CCC(C(=O)c3c(C)cc(C)cc3C)CC2)cc1 | 9.3 (≈ 3.25 µg/mL)
COC[C@H](C)Oc1cc(Oc2cccc(Cl)c2)cc(C(=O)Nc2ccc(C(=O)O)cn2)c1 | 1170 (≈ 537 µg/mL)
NC(=O)Nc1sc(-c2ccc(OC(F)(F)F)cc2)cc1C(N)=O | 11 (≈ 3.8 µg/mL)
COCCOc1cc2nncc(Nc3cc(O)c(Cl)cc3F)c2cc1OC | 0.1 (≈ 0.0394 µg/mL)
O=C(c1ccc(F)cc1)C1CCN(C(=O)Nc2ccc(F)cc2)CC1 | 4.5 (≈ 1.55 µg/mL)
Cc1cc(C)cc(-c2[nH]c3sc(C(C)(C)C(=O)N4C5CCC4CC5)cc3c2CCN2CCC(N3CCOCC3)CC2)c1 | 7.2 (≈ 4.24 µg/mL)
CN(C)CCNS(=O)(=O)c1ccc(Nc2nccc(-c3cnc4cccnn34)n2)cc1 | 93.3 (≈ 40.9 µg/mL)
C[C@H](Oc1cccc2ncnc(Nc3ccc4c(cnn4Cc4cccc(F)c4)c3)c12)C(=O)N(C)C | 8.1 (≈ 3.92 µg/mL)
C[C@H]1COCCN1c1cc(CS(C)(=O)=O)nc(-c2ccc3[nH]ccc3c2)n1 | 190 (≈ 73.6 µg/mL)
Oc1ncnc2c1cnn2Cc1ccccc1 | 158 (≈ 35.9 µg/mL)
Cc1nc(-c2ccc(CN3CCC(N(C)C(=O)Cc4ccc(-n5cnnn5)cc4)CC3)cc2)no1 | 10.2 (≈ 4.82 µg/mL)
COc1cc2c(Nc3ccc(Br)cc3F)ncnc2cc1OC/C=C/CN1CCCC1 | 240 (≈ 117 µg/mL)

Structure (SMILES) | solubility thermodynamic [µM]
CCN(C(=O)Cc1ccc(S(C)(=O)=O)cc1)C1CCN(CCC(c2ccccc2)C2CCN(S(=O)(=O)CC)CC2)CC1 (stereo not given) | 457 (≈ 282 µg/mL)
CC1(c2c(C(=O)NC3C4CC5CC(C4)CC3C5)cnn2-c2ccc(C(=O)O)cc2)CC1 (stereo not given) | 661 (≈ 277 µg/mL)
CCc1ccc(-c2cc(O)c3ccccc3n2)cc1 | 4 (≈ 0.997 µg/mL)
CC(C)(C)Cn1c2ccccc2c2cc(NC(=O)N3CCOCC3)ccc21 | 0.1 (≈ 0.0365 µg/mL)
CC(C)c1c(C(=O)NC2C3CC4CC(C3)CC2C4)cnn1-c1ccc(C(=O)O)cc1 (stereo not given) | 224 (≈ 91.2 µg/mL)
CNC(=O)c1ccc(CN2CCC(c3ccc(C(=O)Nc4ccccc4N)cc3)CC2)cc1 | 4.8 (≈ 2.12 µg/mL)
CC(=O)NC1CCN(C(=O)CN2CCN(CCc3c(-c4cc(C)cc(C)c4)[nH]c4sc(C(C)(C)C(=O)N5C6CCC5CC6)cc34)CC2)C1 (stereo not given) | 107 (≈ 72.1 µg/mL)
CC(=O)NC1CN(c2ccc(Nc3ncc(F)c(-c4cnc(C)n4C(C)C)n3)cc2)C1 | 120 (≈ 50.9 µg/mL)
CCc1cc(NC(=O)Cc2ccc(Oc3ccnc4cc(OC)ccc34)cc2OC)n[nH]1 | 8.5 (≈ 3.68 µg/mL)
CCSc1nc2c(N)ncnc2[nH]1 | 436 (≈ 85.2 µg/mL)
COC1=C(c2ccccc2)C(=O)c2ccccc2C1=O | 8.1 (≈ 2.14 µg/mL)
c1ccc(-c2nc[nH]c2-c2ccccc2)cc1 | 22.9 (≈ 5.04 µg/mL)
CC(C)Cn1c2ccccc2c2cc(C(=O)O)ccc21 | 219 (≈ 58.5 µg/mL)
CCOC(=O)c1nn(-c2ccccc2)c(=O)c2c(N)scc12 | 6.2 (≈ 1.96 µg/mL)
COc1cc2c(NC(=O)Nc3ccccc3Cl)ncnc2cc1OCC1CCN(C)CC1 | 0.3 (≈ 0.137 µg/mL)
CCC(=O)Nc1c(C#N)c2nc3ccccc3nc2n1-c1ccccc1C | 13.5 (≈ 4.8 µg/mL)
N#Cc1cccnc1-c1ccc(C(=O)Nc2ccccc2N)cc1 | 35.5 (≈ 11.2 µg/mL)
CN(C)CCSc1nc2ccc(Br)cc2cc1-c1ccccc1 | 9.5 (≈ 3.68 µg/mL)
COc1cc2ncnc(Nc3ccc(F)c(Cl)c3)c2cc1CN(C)[C@H](C)C(N)=O | 15.5 (≈ 6.48 µg/mL)
CO[C@H]1CN(Cc2ccc(C(F)(F)F)cc2)CC[C@H]1N(C)C(=O)Cc1ccc(-n2cnnn2)cc1 | 263 (≈ 128 µg/mL)
CN(C(=O)Cc1ccc(-n2cnnn2)cc1)C1CCN(Cc2ccc(C(F)(F)F)nc2)CC1 | 182 (≈ 83.6 µg/mL)

Structure (SMILES) | solubility thermodynamic [µM]
O=C(O)c1csc(NC(=O)C(CC2CCCC2)c2ccc(Cl)c(Cl)c2)n1 (stereo not given) | 34.7 (≈ 14.3 µg/mL)
Cc1ccccc1Oc1cc(-n2ncc(Cl)c(Cl)c2=O)ncn1 | 1 (≈ 0.349 µg/mL)
CNC(=O)[C@@H](C)Oc1cccc2ncnc(Nc3ccc(OCc4ccccn4)c(Cl)c3)c12 | 1.6 (≈ 0.742 µg/mL)
O=C(c1ccc(F)cc1)C1CCN(C(=O)c2ccccc2)CC1 | 200 (≈ 62.1 µg/mL)
COc1cc(-c2nn[nH]n2)ccc1Cn1ncc2ccc(NC(=O)OC3CCCC3)cc21 | 43.7 (≈ 18.9 µg/mL)
Cc1cc(F)ccc1CCC1CCN(S(=O)(=O)CC2(N(O)C=O)CCOCC2)CC1 | 13.8 (≈ 6.11 µg/mL)
CN(C(=O)Cc1ccc(-n2cnnn2)cc1)[C@@H]1CCN(Cc2ccc(C(F)(F)F)nc2)C[C@@H]1F | 95.5 (≈ 45.6 µg/mL)
CCn1c2ccccc2c2cc(NC(=O)c3cc(C)on3)ccc21 | 2.5 (≈ 0.798 µg/mL)
COc1cc2nccc(Nc3ccc(Oc4ccccc4)cc3)c2cc1OC | 2.6 (≈ 0.968 µg/mL)
COc1cc2c(Nc3ccc(Cc4ccccc4)cc3)c(C#N)cnc2cc1OCCCN1CCOCC1 | 0.6 (≈ 0.305 µg/mL)
O=S(=O)(NCc1cc(-c2ccccc2Cl)no1)c1ccc(Cl)cc1 | 3.1 (≈ 1.19 µg/mL)
O=c1[nH]c2cc(Cl)c([N+](=O)[O-])cc2c(O)c1-c1ccccc1 | 29.5 (≈ 9.34 µg/mL)
CC(=O)Nc1ccc(-c2ccccc2)cc1 | 79.4 (≈ 16.8 µg/mL)
CC(=O)Nc1nc2c(s1)C(=O)NCCC2 | 1350 (≈ 304 µg/mL)
O=C(Nc1cccnc1)c1ccc(OCCCN2CCCC2)cc1OCc1ccccc1 | 209 (≈ 90.1 µg/mL)
C[C@H](Oc1cccc2ncnc(Nc3ccc(OCc4ccccn4)c(Cl)c3)c12)C(=O)N(C)C | 2.9 (≈ 1.39 µg/mL)
Cc1ccccc1C(=O)Nc1ccccc1 | 186 (≈ 39.3 µg/mL)
Cc1cc(C)cc(-c2[nH]c3sc(C(C)(C)C(=O)N4C5CCC4CC5)cc3c2CCN2CCC(CNC(=O)N3CCOCC3)CC2)c1 | 112 (≈ 72.5 µg/mL)
Nc1n[nH]c(S(=O)(=O)CCCc2ccccc2)n1 | 575 (≈ 153 µg/mL)
COc1cc(Nc2cc(Oc3ccc(C)nc3C)ccn2)cc(OC)c1OC | 6.8 (≈ 2.59 µg/mL)

Assay: physchem
Conditions: octan-1-ol/water, pH 7.4

Structure (SMILES) | logD
C=C(C)[C@H]1Cc2c(ccc3c2O[C@@H]2COc4cc(OC)c(OC)cc4[C@@H]2C3=O)O1 [ROTENONE] | 3.57
Clc1ccc(C2CC=CCNC2)cc1Cl (stereo not given) | 1.86
CC(=O)Nc1ccc(S(=O)(=O)Nc2ccc(Cc3ccncc3)cc2)cc1 | 2.8
O=C(c1ccc(C(=C2CCN(Cc3cscn3)CC2)c2cccc3cccnc23)cc1)N1CCCC1 | 2.75
CN(C(=O)Cc1ccc(Cl)c(Cl)c1)[C@H](CN1CCCC1)c1ccccc1 [ICI-199,441] | 3.42
COc1ccc(C(CN2CCCC2)N(C)C(=O)Cc2ccc(Cl)c(Cl)c2)c(OC)c1 (stereo not given) | 3.07

Same assay, conditions: octan-1-ol/water, pH 7.4, LogD7.4

Structure (SMILES) | logD
COc1cc(-c2ccncc2)cc2cnc(Nc3ccc([C@@H](C)NC(C)=O)cc3)nc12 | 2.73
Fc1cccc(C(COCc2cc(C(F)(F)F)cc(C(F)(F)F)c2)N2CCNCC2)c1 (stereo not given) | 3.2
O=C(NCC12CC3CC(CC(C3)C1)C2)c1ccccc1Br | 4.15
Oc1c2ncc3ccccc3c2nn1-c1ccc(Cl)cc1 | 1.52
NC(=O)Nc1cc(-c2ccccc2)sc1C(=O)N[C@H]1CCCNC1 | 1.04
O=C(Nc1ccc(O)cc1)c1ccc(O)cc1 | 1.5
COc1cc2ncnc(Nc3cc(Cl)ccc3F)c2cc1OCCCN1CCOCC1 | 3.4
COc1ccc(-c2cc(C(F)(F)F)ccc2OCC(=O)O)cc1 | 0.29
O=C(N[C@H]1Cc2ccccc2N(C[C@@H](O)CO)C1=O)c1cc2cc(Cl)sc2[nH]1 | 3.3
COc1ccc2c(C)nc(=O)n(CCN3CCC(NCc4cc5c(cn4)OCCO5)CC3)c2c1 | 0.29
Cc1ccc(F)c(Nc2ccnc(Nc3ccc(OCC(O)CN(C)C)cc3)n2)c1 (stereo not given) | 2.1
O=C(c1ccc(CCC(COc2ccc(-c3cccc([N+](=O)[O-])c3)cc2)N2C(=O)CCCC2=O)cc1)N1CCCC1 (stereo not given) | 2.31
Cc1ncccc1Oc1ncnc(OC2C3COCC2CN(C(=O)OC(C)C)C3)c1C (stereo not given) | 3.1
COc1ccc(-c2ccccc2)cc1N1CC(=O)NS1(=O)=O | -1.01
Oc1ccc(CCc2ccc(O)cc2)cc1 | 3.3
OCCn1cc(-c2cnc3nnn(Cc4ccc5ncccc5c4)c3n2)cn1 [PF-04217903] | 1.7

Structure (SMILES) | logD
CN(CC[C@@H](Oc1ccc(-c2ccccc2)cc1)c1ccc(F)cc1)CC(=O)O | 2.86
CCc1cc(O)c(Oc2ccc(C(N)=O)cc2F)cc1F | 2.87
COC(=O)COc1ccc(O)cc1 | 0.92
COCCOc1ccc(C(=O)Nc2cc(NC(=O)c3cccc(N(C)C)c3)ccc2C)cc1 | 2.74
Cc1ccc(NC(=O)c2cccc(OCC(C)C)c2)cc1C(=O)Nc1cccnc1 | 2.81
CC(C)c1ccc2oc3nc(N)c(C(=O)O)cc3c(=O)c2c1 [AMLEXANOX] | 1.1
CCCS(=O)(=O)N1CCCC(C(=O)N2CCC(Cc3ccccc3)CC2)C1 (stereo not given) | 3.44
CN(C)C(=O)N[C@H]1CC[C@H](CCN2CCN(c3ccc(Cl)c(Cl)c3)CC2)CC1 | 3.15
CCCCCc1cc(=O)[nH]c(N)n1 | 1.62
CCCCCOC(=O)Nc1nc(=O)n([C@@H]2O[C@H](C)[C@@H](O)[C@H]2O)cc1F [CAPECITABINE] | 0.67
COCCC(NC(=O)C1(N)CCN(c2ncnc3[nH]ccc23)CC1)c1ccc(Cl)cc1 (stereo not given) | 2.95
CC(=O)NC[C@H]1CN(c2ccc(N3Cc4ccncc4C3)c(F)c2)C(=O)O1 | 3.02
COC(=O)CCCCCCC(=O)Nc1ccc2c(c1)C(=O)C(=O)c1ccccc1-2 | 2.9
Cc1ccc(CO)cc1N(C)c1ccnc(Nc2cc(N3CCOCC3)nc(N3CCOCC3)n2)n1 | 3.9
CC(C)Cn1c(=O)n(C)c(=O)c2c(-c3cncn3C)n(Cc3cccc4ccccc34)nc21 | 4.1
Cc1cc(Nc2nc(NCc3ccccn3)ncc2Br)n[nH]1 | 2.8
